Experimental data as given in US10501479B2, “Benzenesulfonyl-asymmetric ureas and medical uses thereof” (HELSINN HEALTHCARE SA, priority 2016, dated 2019).
Where two headings read alike, the source gives them in different places.

Key:
[1] = Metabolic stability in dog liver microsomes; type: in vitro ADME
Description: (§1) Metabolic Stability Study
(§2) The metabolic stability of compounds in human, dog, rat and mouse liver microsomes was performed according the experimental conditions reported below:
(§3) • a) Prepare the following 5 stock solutions: • 1. Test compound stock solutions: dilute 10 mM solution of dextromethorphan (Dtr) in DMSO, 10 mM solution of diphenhydramine (DPA) in DMSO, 10 mM solution of omeprazole (Ome) in DMSO, 10 mM solution of verapamil (Ver) in DMSO, and 10 mM of an inverse agonist compound in DMSO to 0.25 mM solution each with acetonitrile/water (70/30). • 2. Buffer: 100 mM potassium phosphate Buffer (PBS) at pH 7.4 • 3. Liver microsomes (20 mg/ml): Thaw in 37° C. water bath quickly • 4. 2000 μL: of NADPH regenerating system (1.3 mM). Place this system on ice before use:
(§4) • 5. […] The test compound concentration in the wells, measured by LC-MS/MS, represents the concentration at time=0. • f) To determine the test compound concentration when t≠0, pre-incubate the NADPH regenerating system and the incubation plate containing the remaining 320 μL of incubation mixture (microsomes protein and test compound) for 5 minutes at 37° C. • g) Start the incubation reaction by adding 80 μL NADPH regenerating system to each well containing the remaining 320 μL incubation mixture. • h) After 10 min., 30 min., and 90 min. of incubation at 37° C., transfer 100 μL of the incubation mixture (microsomes protein, test compound, and NADPH) into the wells of a stop plate pre-filled with 300 μL of the cold quench solution. Shake well. • i) Centrifuge the stop plate at 5000×g for 10 minutes. Collect and dilute the supernatant 3 times with distilled water. Sample and analyze the test compound concentration for all the wells by LC-MS/MS. Animal PK Studies via i.v. (intravenous), p.o. (orally) and s.c. (subcutaneous) administrations

[2] = Metabolic stability in rat liver microsomes; type: in vitro ADME
Description: as §1, §2, §3, §4

[3] = Metabolic stability in human liver microsomes; type: in vitro ADME
Summary of the method: (§5)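 Parent compound was measured by LC-MS/MS at 0, 10, 30 and 90 min after NADPH-initiated incubation with liver microsomes at 37 °C. Buffer was 100 mM potassium phosphate, pH 7.4; time-zero concentration was taken before NADPH addition.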

[4] = Metabolic stability in mouse liver microsomes; type: in vitro ADME
Summary of the method: as §5

[5] = biological target: T1, GHSR-1a (HEK293/GHSR1a cell line) (Homo sapiens, UniProt Q92847); experiment: Ghrelin antagonist potency (IC50) with calcium FLIPR assay, ghrelin 10 nM; type: cell-based
T1 construct: expressed in transfected cells; host or cells: HEK293/GHSR1a cell line
Summary of the method: (§6)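 Dye preload 30-60 min, RT or 37° C; compound in DMSO. Agonist mode: compound at t=20 sec, Ca2+ read 2 min. Antagonist mode: compound + ghrelin 10 nM at t=20 sec, 2 min read. EC50/IC50 from dose-response curves.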

[6] = biological target: T2, recombinant human ghrelin receptor (HEK293/GRLN) (Homo sapiens, UniProt Q92847); experiment: Ghrelin inverse agonist potency (EC50) with IP-1 (IP-One HTRF) assay; type: cell-based; conditions: IP-1 assay
T2 construct: expressed in transfected cells
Summary of the method: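 HEK293/GRLN cells were seeded 18-22 hours before the test, then exposed to compound in stimulation buffer for 1 hour at 37° C, 5% CO2. IP-1 was detected by IP-One HTRF (IP1-d2 plus Tb-cryptate, 1 hour RT), reading 620 and 665 nm; the inverse agonist EC50 was derived from this.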

[7] = Animal PK study in mouse via i.v., p.o. and s.c. administration; type: in vivo
Description: All treated animals received a single dose of a test compound (either through i.v., p.o., or s.c. administration) according to the regimen shown in the following table:
For oral dose groups, appropriate amount of test compound was prepared in the following formulation carrier: 1% DMSO (increase to 5% maximum if necessary) and 0.5% Methycellulose. Each mouse or rat received by oral gavage 10 mL/kg of the formulation mixture.
For i.v. and s.c dose groups, appropriate amount of test compound was dissolved in 1% DMSO (increase to 5% maximum if necessary), 99% of 20% HP-β-Cyclodextron (w/v). The pH was adjusted accordingly. Each mouse or rat received 5 mL/kg of the formulation mixture. i.v. dose was administered by tail vein injection. Subcutaneous injection was administered over the shoulders, into the loose skin over the neck. At designated time points (e.g., i.v. and s.c.: 0.083, 0.25, 0.5, 1, 2, 4, 8 and 24 hrs; p.o.: 0.25, 0.5, 1, 2, 4, 8 and 24 hrs), systemic samples of blood (50 μL in mouse or 500 μL in rat) were collected by puncture (submandibular vein in mouse or jugular vein in rat) into vacutainers containing EDTA-K2 as anti-coagulant. The blood was centrifuged at 6000 rpm for 8 min at 4° C. to obtain plasma. All plasma samples were stored at −20° C. All plasma samples were added to acetonitrile for protein precipitation and quantitatively analyzed by LC-MS/MS.

[8] = Animal PK study in rat via i.v., p.o. and s.c. administration; type: in vivo; conditions: rat
[9] = biological target: T1, GHSR-1a (HEK293/GHSR1a cell line); experiment: Ghrelin agonist potency (EC50) with calcium FLIPR assay; type: cell-based
Summary of the method: as §6

[10] = ghrelin antagonist potency, read-out: IC50 (Activity)
[11] = inverse agonist potency, read-out: EC50 (Activity)
[12] = HEK293/GHSR1a, ghrelin 10 nM, read-out: Activity IC50 (ghrelin antagonist potency)
[13] = HEK293/GHSR1a, read-out: Activity EC50/EMax: EC50 (ghrelin agonist potency)
[14] = HEK293/GRLN, read-out: Activity EC50 (ghrelin inverse agonist potency)
[15] = ghrelin antagonist potency, read-out: Activity IC50
[16] = ghrelin agonist potency, read-out: Activity EC50/EMax
[17] = ghrelin inverse agonist potency, read-out: Activity EC50

T1 sequence (Q92847 whole entry): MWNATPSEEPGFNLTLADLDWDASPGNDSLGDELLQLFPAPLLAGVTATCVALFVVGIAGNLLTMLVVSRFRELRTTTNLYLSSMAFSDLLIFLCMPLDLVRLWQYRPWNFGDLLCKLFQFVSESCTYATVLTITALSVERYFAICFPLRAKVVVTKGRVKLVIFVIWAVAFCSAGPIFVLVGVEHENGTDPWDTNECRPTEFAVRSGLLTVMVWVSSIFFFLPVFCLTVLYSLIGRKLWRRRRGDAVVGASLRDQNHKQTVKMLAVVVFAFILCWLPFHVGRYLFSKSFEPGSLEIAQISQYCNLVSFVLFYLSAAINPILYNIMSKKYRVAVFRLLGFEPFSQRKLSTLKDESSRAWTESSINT
T2 sequence (Q92847 whole entry): as above

SMILES | Metabolic Stability Study D = dog [1] | Metabolic Stability Study R = rat [2] | Metabolic Stability Study H = human [3] | Metabolic Stability Study M = mouse [4] | IC50 [5, 12] [nM] | EC50 [6, 14] [nM] | IC50 [5, 15] [nM] | EC50 [9, 16] [nM] | EC50 [6, 17] [nM] | also measured
COc1ccc([C@H](C)NC(=O)Nc2ccc(S(=O)(=O)Nc3ccc(CC(C)(C)N)cc3)cc2)c(Cl)c1Cl [H0937, (S)-N-(4-(2-amino-2-methylpropyl)phenyl)-4-(3-(1-(2,3-dichloro-4-methoxyphenyl)ethyl)ureido) benzenesulfonamide] | H = <10 M = <10 R = <10 D = <10 μL/min/mg | H = <10 M = <10 R = <10 D = <10 μL/min/mg | H = <10 M = <10 R = <10 D = <10 μL/min/mg | H = <10 M = <10 R = <10 D = <10 μL/min/mg |  |  |  |  |  | IC50 [5, 10]: 84 nM; EC50 [6, 11]: 12.7 nM
C[C@H](NC(=O)Nc1ccc(S(=O)(=O)Cc2ccc3c(c2)CCNC3)cc1)c1cccc(Cl)c1Cl [H1027, (S)-1-(1-(2,3-dichlorophenyl)ethyl)-3-(4-(((1,2,3,4-tetrahydroisoquinolin-6-yl)methyl)sulfonyl)phenyl)urea] |  |  | H = <10 M = <10 R = not reported D = not reported μL/min/mg | H = <10 M = <10 R = not reported D = not reported μL/min/mg |  |  |  |  |  | PK F [7]: F = 0.72 (M); %; PK CLiv ([7]; i.v.): 11.8 mL/min/kg; PK Vdiv ([7]; i.v.): 1.64 L/kg; PK t1/2iv ([7]; i.v.): 1.61 (M); h; PK CLpo ([7]; p.o.): 1428 mL/min/kg; PK Vdpo ([7]; p.o.): 345 (M); L/Kg; PK t1/2po ([7]; p.o.): 2.79 (M); h; IC50 [5, 10]: 2.5 nM; PK F [8]: 57.14 (R) %; PK CLiv ([8]; i.v.): 205.7 mL/min/kg; PK Vdiv ([8]; i.v.): 168.2 L/kg; PK t1/2iv ([8]; i.v.): 10.2 (R) h; PK CLpo ([8]; p.o.): 416.3 mL/min/kg; PK Vdpo ([8]; p.o.): 80.4 (R) L/Kg; PK t1/2po ([8]; p.o.): 2.21 (R) h; EC50 [6, 11]: 1.62 nM
C[C@H](NC(=O)Nc1ccc(S(=O)(=O)Cc2ccc3[nH]ccc3c2)cc1)c1cccc(Cl)c1Cl [H1142, (S)-1-(4-(((1H-indol-5-yl)methyl)sulfonyl)phenyl)-3-(1-(2,3-dichlorophenyl)ethyl)urea] |  | 209.6 µL/min/mg | 114.9 µL/min/mg | 151.4 µL/min/mg |  |  |  |  |  | EC50 [6, 11]: 440 nM
CC(NC(=O)Nc1ccc(S(=O)(=O)Cc2cc(F)c3c(c2)CCN(C)C3)cc1)c1cccc(Cl)c1Cl (centres unmarked) [H1378, 1-(1-(2,3-dichlorophenyl)ethyl)-3-(4-(((8-fluoro-2-methyl-1,2,3,4-tetrahydroisoquinolin-6-yl)methyl)sulfonyl)phenyl)urea] | 227.9 µL/min/mg |  | 151.7 µL/min/mg | 245.9 µL/min/mg | 19 | 1.3 |  |  |  | EC50 [9, 13]: > 30000 nM
CC(NC(=O)Nc1ccc(S(=O)(=O)Cc2nc3c(s2)CN(C)CC3)cc1)c1cccc(Cl)c1Cl (centres unmarked) [H1379, 1-(1-(2,3-dichlorophenyl)ethyl)-3-(4-(((5-methyl-4,5,6,7-tetrahydrothiazolo[5,4-c]pyridin-2-yl)methyl)sulfonyl)phenyl)urea] | > 500 µL/min/mg |  | 261.6 µL/min/mg | > 500 µL/min/mg | 44.3 | 1.43 |  |  |  | EC50 [9, 13]: > 30000 nM
CC(NC(=O)Nc1ccc(S(=O)(=O)Cc2ccc3c(c2)CC(C)N(C)C3)cc1)c1cccc(Cl)c1Cl (centres unmarked) [H1380, 1-(1-(2,3-dichlorophenyl)ethyl)-3-(4-(((2,3-dimethyl-1,2,3,4-tetrahydroisoquinolin-6-yl)methyl)sulfonyl)phenyl)urea] | 169.9 µL/min/mg |  | 137 µL/min/mg | 66.5 µL/min/mg | 2.3 | 0.367 |  |  |  | 
COc1ccccc1C(C)NC(=O)Nc1ccc(S(=O)(=O)Cc2ccc3c(c2)CNC3)cc1 (centres unmarked) [H1382, 1-(4-((isoindolin-5-ylmethyl)sulfonyl)phenyl)-3-(1-(2-methoxyphenyl)ethyl)urea] | 41.9 µL/min/mg |  | 42.4 µL/min/mg | 43.4 µL/min/mg | 34.3 | 2.68 |  |  |  | EC50 [9, 13]: > 30000 nM
CC(NC(=O)Nc1ccc(S(=O)(=O)Cc2ccc3c(c2)CCNC3)cc1C(=O)O)c1ccccc1 (centres unmarked) [H1541, 2-(3-(1-phenylethyl)ureido)-5-(((1,2,3,4-tetrahydroisoquinolin-6-yl)methyl)sulfonyl)benzoic acid] |  | H = <10 R = <10 μL/min/mg | H = <10 R = <10 μL/min/mg |  |  |  | 72.3 | > 30000 | 9.7 | 
CC(NC(=O)Nc1ccc(S(=O)(=O)Cc2ccc3c(c2)CCNC3)cc1C(=O)O)c1cccc(Cl)c1Cl (centres unmarked) [H1542, 2-(3-(1-(2,3-dichlorophenyl)ethyl)ureido)-5-(((1,2,3,4-tetrahydroisoquinolin-6-yl)methyl)sulfonyl)benzoic acid] |  | 13.3 µL/min/mg | < 10 µL/min/mg |  |  |  | 1.69 | > 30000 | 1.9 | 
COc1cc(S(=O)(=O)Cc2ccc3c(c2)C(F)CNC3)ccc1NC(=O)N[C@H](C)c1cccc(Cl)c1Cl (stereo partly drawn) [H1543, 1-((R)-1-(2,3-dichlorophenyl)ethyl)-3-(4-(((4-fluoro-1,2,3,4-tetrahydroisoquinolin-6-yl)methyl)sulfonyl)-2-methoxyphenyl)urea] |  | 204.6 µL/min/mg | 46.8 µL/min/mg |  |  |  | 15.9 | > 30000 | 12.6 | 
COc1cc(S(=O)(=O)Cc2ccc3c(c2)C(F)CN(C)C3)ccc1NC(=O)N[C@H](C)c1cccc(Cl)c1Cl (stereo partly drawn) [H1544, 1-((R)-1-(2,3-dichlorophenyl)ethyl)-3-(4-(((4-fluoro-2-methyl-1,2,3,4-tetrahydroisoquinolin-6-yl)methyl)sulfonyl)-2-methoxyphenyl)urea] |  | 427.2 µL/min/mg | 323.3 µL/min/mg |  |  |  | 40.4 | > 30000 | 9.7 | 
